# Laboratory results taken from US11819492B2, “Natural product derivatives for inhibiting cellular necroptosis, ferroptosis and oxytosis” (Institut National de la Sante et de la Recherche Medicale …, priority 2016, dated 2023).
# Key:
# [1] = test system: Murine hippocampal neuronal cell line HT22; assay: Erastin-induced ferroptosis in HT22 cells, MTS viability assay; format: cell-based; conditions: 1 μM erastin, 24 hours, FIG. 14
# Description: Murine hippocampal neuronal cell line HT22 was treated with 10 mM of (L)-glutamate (oxytosis initiator) or 1 μM erastin (ferroptosis initiator).
# (§1) Cells were then incubated at 37° C., 5% CO2 for 24 hours before performing MTS viability assay. Cell viability was monitored using CellTiter 96® AQueous Non-Radioactive Cell Proliferation Assay (Promega, Fitchburg, WI, USA), based on the water-soluble tetrazolium compound MTS (3-[4,5-dimethylthiazol-2-yl]-5-[3-carboxymethoxy-phenyl]-2-[4-sulfophenyl]-2H-tetrazolium, inner salt) according to the manufacturers instructions.
# [2] = test system: 456 kinases, including eight lipid kinases; assay: KINOMEscan Max competition binding assay, profiling against 456 kinases; design: species or system human; conditions: poor affinity = over 30% of kinase still on the affinity matrix, FIG. 8
# Description: (§2) This experimental approach quantitatively measures the ability of a compound to compete with an immobilized, active-site directed ligand. […] The ability of compound 1 to compete with the immobilized ligand is measured via quantitative PCR of the DNA tag. The codes reported on the FIG. 8 indicate the subclasses of protein kinases: CMGC for CDKs, MAP kinases, GSK and CDK-like kinases; AGC for Protein kinase A, G, and C families (PKA, PKC, PKG); CAMK for Ca2+/calmodulin-dependent protein kinases; CK1, Cell Kinases 1 (originally known as Casein Kinase 1); STE, STE Kinases (Homologs of yeast STErile kinases); TKL, Tyrosine Kinases-Like; TK, Tyrosine Kinases. Each kinase tested in the assay panel is marked with a circle. The hit kinase reported, RIPK1, is marked with a black circle.
# [3] = test system: rat embryonic myoblastic H9C2 cells; assay: H2O2-induced necrosis, LDH release assay; format: cell-based; conditions: 10 μM, 2 hours pretreatment, 800 μM H2O2 for 24 hours, FIG. 17
# Description: The rat embryonic myoblastic H9C2 cells were cultured at 10,000 cells/well in 96-well-plates for 24 hours at 37° C./5% CO2. […] LB corresponds to cells treated with a lysis buffer (100% of cell death). Cell cytotoxicity was determined by a colorimetric assay quantitatively measuring lactate dehydrogenase (LDH) released […].
# hRPE-1 cells = assay: Cytotoxicity on human retinal pigment epithelial cell line (MTS); format: cell-based; conditions: 0-50 μM tested, 24 hours, FIG. 5
# Description: A colorimetric MTS assay was used to calculate the percentage of cell viability.
# RIPK1 = target: T1, RIPK1 (Homo sapiens, UniProt Q13546); assay: KINOMEscan Max competition binding assay, RIPK1; conditions: RIPK1, FIG. 8
# T1 construct: DNA tag (qPCR read-out); purchased DiscoveRx Corporation, Fremont, USA (assay service)
# T1 sequence (Q13546 1-671): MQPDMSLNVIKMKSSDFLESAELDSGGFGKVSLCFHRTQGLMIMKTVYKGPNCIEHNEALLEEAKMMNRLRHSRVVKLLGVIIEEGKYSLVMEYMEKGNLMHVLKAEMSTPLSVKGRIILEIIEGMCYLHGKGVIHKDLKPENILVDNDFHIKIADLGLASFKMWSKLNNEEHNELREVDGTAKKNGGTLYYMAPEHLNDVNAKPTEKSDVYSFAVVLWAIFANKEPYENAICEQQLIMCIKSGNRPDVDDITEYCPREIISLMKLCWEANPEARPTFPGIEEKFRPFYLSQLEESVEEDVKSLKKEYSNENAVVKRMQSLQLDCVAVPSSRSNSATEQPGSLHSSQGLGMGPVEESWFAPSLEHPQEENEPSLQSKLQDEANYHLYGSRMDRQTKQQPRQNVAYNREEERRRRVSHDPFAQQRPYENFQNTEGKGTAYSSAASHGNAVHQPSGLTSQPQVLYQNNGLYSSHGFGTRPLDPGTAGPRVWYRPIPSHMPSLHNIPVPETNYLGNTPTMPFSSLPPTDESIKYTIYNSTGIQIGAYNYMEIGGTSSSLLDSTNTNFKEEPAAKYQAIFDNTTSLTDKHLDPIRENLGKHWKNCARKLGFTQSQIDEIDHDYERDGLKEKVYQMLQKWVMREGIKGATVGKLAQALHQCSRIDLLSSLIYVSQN
# Description: as §2
# [4] = test system: Jurkat FADD-deficient I 2.1 cell line; assay: TNF-α-induced necroptosis in Jurkat FADD-deficient cells, MTS viability assay; format: cell-based, human; conditions: TNF-α 10 ng/ml, 24 hours
# Description: TNF-α can induce necroptosis in Jurkat cells (human T lymphocytes) when FADD is deleted. This model was used to screen various libraries of chemical compounds for characterization of new inhibitors of cellular necroptosis. Details on this cell-based assay can be found in Miao and Degterev (Methods Mol. Biol. 2009, 559, 79-93). The Jurkat FADD-deficient I 2.1 cell line used was purchased from ATCC and was maintained in RPMI 1640 medium (Gibco) containing Glutamax and 15% fetal calf serum (Life Technology). Necroptosis was induced by addition of 10 ng/ml of human recombinant TNF-α (Life Technology). Necrostatin-1 (Nec-1, Enzo Life Sciences) was used as model necroptosis inhibitor. Cells were maintained in 75 cm^2 flask and passed every 2 or 3 days. Chemical collections analysed were formatted in 96-well plates with 80 molecules per plate at 10 mM in 100% DMSO. […]
# as §1, with “were” for “were then”
smiles,measurement,setting,value
COc1cc(O)c2c(c1)OC(O)(c1ccc(OCc3ccccc3)cc1)CC2=O (stereo not shown) [compound 1],concentration that protects cells from death induced by erastin,[1],> 25 µM
same,specificity for RIPK1 among the large panel of tested kinases,[2],high specificity
same,protection from death induced by H2O2 (LDH release),[3],protects from death induced by H2O2
same,cytotoxicity towards hRPE-1 cells,hRPE-1 cells,not cytotoxic
same,initial amount of kinase still on the affinity matrix after competition,RIPK1,0.15%
same,protection of cell viability from death induced by TNF-α,"[4]; 0.01-50.00 μM, FIG. 1",protects cells from death induced by TNF-α
same,necroptosis inhibition in the library screening,[4]; screening at 10 μM,very efficient necroptosis inhibitor
